Consider seven compounds from paper PMC9607427, “Novel 7-Chloro-(4-thioalkylquinoline) Derivatives: Synthesis and Antiproliferative Activity through Inducing Apoptosis and DNA/RNA Damage” (Pharmaceuticals, 2022).

For orientation: IC50 means the concentration at which inhibition is half-maximal. Low readings indicate higher potency, high ones lower potency.

Data set [1] has as its system CCRF-CEM lymphoblasts. Briefly: BrU incorporation analysis (RNA synthesis). To be noted: 24 h. The data set is classed as cell-based, human. As for the experimental part:
The effect of compounds on cell cycle distribution was determined to gain insights into the mechanism of its antiproliferative activity. […] For example, as compared with control, the percentage of cells in G2/M phases was increased by treatment with 5 × IC50 μM of compounds for 24 h (Table 4). […] As shown in (Table 4), there was a marked increase in the sub-G1 from 2.91 in untreated cells. 5-Bromo-2-deoxyuridine (BrDU) is incorporated into newly synthesized DNA, and 5-bromouridine (BrU) pulse labeling is therefore commonly used as a proliferation marker. Low BrDU and BrU incorporation into the DNA or RNA, respectively, of treated cells with all compounds at 5 × IC50 reflected inhibition of DNA and RNA synthesis, indicating irreversible apoptotic changes. The percentage of […] cells incorporating 5-bromouridine is proportional to the transcriptional activity of CCRF-CEM cells. Cells were cultured and treated as described above. Before harvesting, pulse-labeling with 1 mM BrU for 30 min followed. The cells were then fixed in 1% buffered paraformaldehyde with 0.05% NP-40 at rt for 15 min, and then stored at 4 °C overnight. Before measurement, they were washed with 1% glycine in PBS, washed with PBS again and stained with primary anti-BrDU antibody cross-reacting to BrU (Exbio) for 30 min at rt in the dark. From this point, the experiment was performed exactly as in the previous method.

The subject of data set [2] is BJ (noncancerous human fibroblasts from foreskin). Briefly: Cytotoxic MTS assay, BJ. The data set is classed as cell-based. The gist of the method: (§1)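 IC50 values derive from MTS metabolic staining after 3 days of compound exposure, at least three biological replicates in technical duplicate; SD typically up to 20% of the mean.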
On the technique in general: Tetrazolium dyes change colour on reduction, which living cells bring about.

Data set [3] relates to K562 (chronic myeloid leukemia). Briefly: Cytotoxic MTS assay, K562. The data set is classed as cell-based, human. The gist of the method:
(§2)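 Growth inhibition over 72 h at 37 °C was quantified with MTS reagent (OD 490 nm), using four-fold compound dilutions added at seeding; the 50% inhibitory concentration was reported.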

Data set [4] concerns MRC-5LD (noncancerous human lung fibroblasts doxorubicin-resistant). The experiment in a line: Cytotoxic MTS assay, MRC-5LD. The data set is classed as cell-based. The gist of the method:
as §1

Data set [5] concerns A549 (lung adenocarcinoma). Briefly: Cytotoxic MTS assay, A549. The data set is classed as cell-based, human. The gist of the method: as §2
Where [6] appears, read: 5 × IC50 (second value of cell).

As for `COc1ccc(C(=O)OCCS(=O)(=O)c2cc[n+]([O-])c3cc(Cl)ccc23)cc1` [Compound 63, 2-[(N-Oxide 7-chloroquinolin-4-yl)sulfonyl]ethyl-4-methoxybenzoate], the “RNA Synthesis (% positive of cells)” value was determined as 35.01% in data set [1] (1 × IC50 (first value of cell)) and 2.79% in data set [1] (setting [6]). The IC50 in data set [2] turned out to be 23.9 µM; in data set [3], 5.38 µM; in data set [4], 2.91 µM; in data set [5], 28.8 µM.

Regarding `COc1ccc(C(=O)OCCS(=O)(=O)c2cc[n+]([O-])c3cc(Cl)ccc23)cc1[N+](=O)[O-]` [Compound 69, 2-[(N-Oxide 7-chloroquinolin-4-yl)sulfonyl]ethyl-4-methoxy-3-nitrobenzoate], the “RNA Synthesis (% positive of cells)” value in data set [1] (1 × IC50 (first value of cell)) is 31.54%; in data set [1] (setting [6]), 2.64%. The IC50 amounted to 27.2 µM in data set [2], 6.49 µM in data set [3], 2.74 µM in data set [4] and 28.3 µM in data set [5].

In the case of `O=C(OCCS(=O)(=O)c1cc[n+]([O-])c2cc(Cl)ccc12)c1ccc(C(F)(F)F)cc1` [Compound 72, 2-[(N-Oxide 7-chloroquinolin-4-yl)sulfonyl]ethyl-4-(trifluoromethyl)benzoate], the “RNA Synthesis (% positive of cells)” value in data set [1] (1 × IC50 (first value of cell)) was 21.64%; in data set [1] (setting [6]), 2.19%. In addition, the IC50 in data set [2] was 28.7 µM; in data set [3], 3.02 µM; in data set [4], 13.9 µM; in data set [5], 28.5 µM.

`COc1ccccc1C(=O)OCCS(=O)(=O)c1cc[n+]([O-])c2cc(Cl)ccc12` [Compound 68, 2-[(N-Oxide 7-chloroquinolin-4-yl)sulfonyl]ethyl-2-methoxybenzoate]: the “RNA Synthesis (% positive of cells)” value in data set [1] (1 × IC50 (first value of cell)) amounted to 37.4%; in data set [1] (setting [6]), 3.8%. Also, the IC50 worked out at 24.6 µM in data set [2], 4.72 µM in data set [3], 4.17 µM in data set [4] and 27 µM in data set [5].

As to `Cc1ccc([N+](=O)[O-])c(C(=O)OCCS(=O)(=O)c2cc[n+]([O-])c3cc(Cl)ccc23)c1` [Compound 70, 2-[(N-Oxide 7-chloroquinolin-4-yl)sulfonyl]ethyl-5-methyl-2-nitrobenzoate], the “RNA Synthesis (% positive of cells)” value in data set [1] (1 × IC50 (first value of cell)) is listed as 35.28%; in data set [1] (setting [6]), 2.88%. For the same compound, the IC50 in data set [2] came to 25.7 µM; in data set [3] it was 6.1 µM; in data set [4] it was 6.47 µM; in data set [5], 28.2 µM.

In the case of `COc1ccc(OC)c(C(=O)OCCS(=O)(=O)c2cc[n+]([O-])c3cc(Cl)ccc23)c1` [Compound 65, 2-[(N-Oxide 7-chloroquinolin-4-yl)sulfonyl]ethyl-2,5-dimethoxybenzoate], the figures for the “RNA Synthesis (% positive of cells)” value in data set [1] (1 × IC50 (first value of cell)) and in data set [1] (setting [6]) were 36.04% and 24.95%, respectively. For the same compound, the half-maximal inhibitory concentration (IC50) was 22.2 µM in data set [2], 5.85 µM in data set [3], 2.02 µM in data set [4] and 28.2 µM in data set [5].

For the compound `COc1cc(OC)c(C(=O)OCCS(=O)(=O)c2cc[n+]([O-])c3cc(Cl)ccc23)cc1OC` [Compound 66, 2-[(N-Oxide 7-chloroquinolin-4-yl)sulfonyl]ethyl-2,4,5-trimethoxybenzoate], the “RNA Synthesis (% positive of cells)” value in data set [1] (1 × IC50 (first value of cell)) is recorded as 29.44%; in data set [1] (setting [6]) it was 3.05%. In addition, the IC50 in data set [2] stood at 21.2 µM; in data set [3], 5.3 µM; in data set [4] it was 2.3 µM; in data set [5], 28 µM.
